Structures are written as SMILES.

One test deals with pERK1/2(THR202/TYR204) level in SW620 cell line (KRAS G12V). In words: KRAS G12V pERK assay (HTRF) in SW620 cell line. Format: cell-based. To be noted: Homo sapiens, SW-620, 2 h, SW620 cells, 2 hrs compound treatment. The procedure: (§1) SW620 cell line was used in this study. Cells were maintained in RPMI 1640 supplemented with 10% fetal bovine serum (Thermo Fisher), 50 units/mL penicillin and streptomycin (Thermo Fisher) and kept at 37° C. in a humidified atmosphere of 5% CO2 in air. Cells were reinstated from frozen stocks that were laid down within 30 passages from the original cells purchased. 40000 cells per well were seeded into a 96-well plate and incubated overnight. Cells were treated with a 10-point dilution series. The final compound concentration is from 0 to 10 μM. After 2 hrs compound treatment, cells were lysed, and the pERK1/2(THR202/TYR204) level in the cell lysates was detected by HTRF kit (Cisbio). In brief, a total of 16 μL of cell lysate from each well of a 96-well plate was transferred to a 384-well white assay plate. Lysate from each well was incubated with 2 μL of Eu3+-cryptate (donor) labeled anti-phospho-ERK1/2 and 2 μL of D2 (acceptor) labeled anti-phospho-ERK1/2 antibodies (Cisbio) overnight in dark at room temperature. When donor and acceptor are in close proximity, excitation of the donor with laser triggers a Fluorescence Resonance Energy Transfer (FRET) towards the acceptor, which in turn fluoresces at 655 nm wavelength. FRET signals were measured using a PHERAstar FSX reader (BMG Labtech). IC50 determination was performed by fitting the curve of percent inhibition versus the log of the inhibitor concentration using Dotmatics.
In the case of `C#Cc1c(F)ccc2cc(O)cc(-c3nc4c5c(nc(OC[C@@]67CCCN6C[C@H](F)C7)nc5c3F)N3CCCC[C@H]3CO4)c12` [Example 16, 5-ethynyl-6-fluoro-4-((S)-1-fluoro-11-(((2R,7aS)-2-fluorotetrahydro-1H-pyrrolizin-7a(5H)-yl)methoxy)-5,5a,6,7,8,9-hexahydro-4-oxa-3,9a,10,12-tetraazabenzo[4,5]cyclohepta[1,2,3-d]naphthalen-2-yl)naphthalen-2-ol], the IC50 (in general, the midpoint of a concentration-inhibition curve) was 5.9 nM.

As to `Nc1cc(Cl)c(C(F)(F)F)c(-c2nc3c4c(nc(OC[C@@]56CCCN5C[C@H](F)C6)nc4c2F)N2CC[C@H]2CCO3)c1` [Example 22, 3-chloro-5-((S)-6-fluoro-4-(((2R,7aS)-2-fluorotetrahydro-1H-pyrrolizin-7a(5H)-yl)methoxy)-1,10,11,11a-tetrahydro-2H-9-oxa-2a,3,5,8-tetraazacyclobuta[4,5]cycloocta[1,2,3-de]naphthalen-7-yl)-4-(trifluoromethyl)aniline], the 50% inhibitory concentration (IC50) is 466 nM.

In turn, `Nc1cc(Cl)c(C(F)(F)F)c(-c2nc3c4c(nc(OC[C@@]56CCCN5C[C@H](F)C6)nc4c2F)N2CC[C@@H]2CCO3)c1` [Example 23, 3-chloro-5-((R)-6-fluoro-4-(((2R,7aS)-2-fluorotetrahydro-1H-pyrrolizin-7a(5H)-yl)methoxy)-1,10,11,11a-tetrahydro-2H-9-oxa-2a,3,5,8-tetraazacyclobuta[4,5]cycloocta[1,2,3-de]naphthalen-7-yl)-4-(trifluoromethyl)aniline] yielded an IC50 of 73 nM.

`CC1Oc2nc(-c3cc(N)cc(Cl)c3C(F)(F)F)c(F)c3nc(OC[C@@]45CCCN4C[C@H](F)C5)nc(c23)N2CCC[C@@H]12` (stereo partly drawn) [Example 24, 3-chloro-5-((11aS)-7-fluoro-5-(((2R,7aS)-2-fluorotetrahydro-1H-pyrrolizin-7a(5H)-yl)methoxy)-11-methyl-2,3,11,11a-tetrahydro-1H-10-oxa-3a,4,6,9-tetraazanaphtho[1,8-ef]azulen-8-yl)-4-(trifluoromethyl)aniline]: half-maximal inhibition (IC50) was put at 121 nM.

The molecule `Nc1cc(Cl)c(C(F)(F)F)c(-c2nc3c4c(nc(OC[C@@]56CCCN5C[C@H](F)C6)nc4c2F)N2CCCCCC2CO3)c1` (stereo partly drawn) [Example 25, 3-chloro-5-(1-fluoro-12-(((2R,7aS)-2-fluorotetrahydro-1H-pyrrolizin-7a(5H)-yl)methoxy)-5a,6,7,8,9,10-hexahydro-5H-4-oxa-3,10a,11,13-tetraazanaphtho[1,8-ab]heptalen-2-yl)-4-(trifluoromethyl)aniline] yielded an IC50 of 53 nM.

Take `C#Cc1c(F)ccc2cc(O)cc(-c3nc4c5c(nc(OC[C@@]67CCCN6C[C@H](F)C7)nc5c3F)N3CCCCCC3CO4)c12` (stereo partly drawn) [Example 26, 5-ethynyl-6-fluoro-4-(1-fluoro-12-(((2R,7aS)-2-fluorotetrahydro-1H-pyrrolizin-7a(5H)-yl)methoxy)-5a,6,7,8,9,10-hexahydro-5H-4-oxa-3,10a,11,13-tetraazanaphtho[1,8-ab]heptalen-2-yl)naphthalen-2-ol]: the IC50 was determined as 9.3 nM.

Consider `N#Cc1c(N)sc2c(F)ccc(-c3c(Cl)c4c5c(nc(OC[C@@]67CCCN6C[C@H](F)C7)nc5c3F)N3CCC[C@H]3CO4)c12` [Example 27, 2-amino-4-((S)-10-chloro-8-fluoro-6-(((2R,7aS)-2-fluorotetrahydro-1H-pyrrolizin-7a(5H)-yl)methoxy)-2,3,12,12a-tetrahydro-1H-pyrrolo[2′,1′:3,4][1,4]oxazepino[5,6,7-de]quinazolin-9-yl)-7-fluorobenzo[b]thiophene-3-carbonitrile], for which the IC50 worked out at 31 nM.

With `C[C@@H]1C[C@H]2COc3c(Cl)c(-c4ccc(F)c5sc(N)c(C#N)c45)c(F)c4nc(OC[C@@]56CCCN5C[C@H](F)C6)nc(c34)N2C1` [Example 28, 2-amino-4-((2R,12aS)-10-chloro-8-fluoro-6-(((2R,7aS)-2-fluorotetrahydro-1H-pyrrolizin-7a(5H)-yl)methoxy)-2-methyl-2,3,12,12a-tetrahydro-1H-pyrrolo[2′,1′:3,4][1,4]oxazepino[5,6,7-de]quinazolin-9-yl)-7-fluorobenzo[b]thiophene-3-carbonitrile], the concentration for half-maximal inhibition (IC50) was 74 nM.

Molecule `N#Cc1c(N)sc2c(F)ccc(-c3c(Cl)c4c5c(nc(OC[C@@]67CCCN6C[C@H](F)C7)nc5c3F)N3C[C@H](O)C[C@H]3CO4)c12` [Example 29, 2-amino-4-((2R,12aS)-10-chloro-8-fluoro-6-(((2R,7aS)-2-fluorotetrahydro-1H-pyrrolizin-7a(5H)-yl)methoxy)-2-hydroxy-2,3,12,12a-tetrahydro-1H-pyrrolo[2′,1′:3,4][1,4]oxazepino[5,6,7-de]quinazolin-9-yl)-7-fluorobenzo[b]thiophene-3-carbonitrile] returned an IC50 of 91 nM.

`N#Cc1c(N)sc2c(F)ccc(-c3c(Cl)c4c5c(nc(OC[C@@]67CCCN6C[C@H](F)C7)nc5c3F)N3CCC(C#N)C[C@H]3CO4)c12` (stereo partly drawn) [Example 30, (8aS)-5-(2-amino-3-cyano-7-fluorobenzo[b]thiophen-4-yl)-6-chloro-4-fluoro-2-(((2R,7aS)-2-fluorotetrahydro-1H-pyrrolizin-7a(5H)-yl)methoxy)-8,8a,9,10,11,12-hexahydropyrido[2′,1′:3,4][1,4]oxazepino[5,6,7-de]quinazoline-10-carbonitrile] yielded an IC50 of 51 nM.

Take `N#Cc1c(N)sc2c(F)ccc(-c3c(Cl)c4c5c(nc(OC[C@@]67CCCN6C[C@H](F)C7)nc5c3F)N3CC[C@@H](O)C[C@H]3CO4)c12` [Example 31, 2-Amino-4-((8aS,10R)-6-chloro-4-fluoro-2-(((2R,7aS)-2-fluorotetrahydro-1H-pyrrolizin-7a(5H)-yl)methoxy)-10-hydroxy-8,8a,9,10,11,12-hexahydropyrido[2′,1′:3,4][1,4]oxazepino[5,6,7-de]quinazolin-5-yl)-7-fluorobenzo[b]thiophene-3-carbonitrile]: half-maximal inhibition (IC50) was put at 56 nM.

In turn, `C#Cc1c(F)ccc2cc(O)cc(-c3nc4c5c(nc(OC[C@@]67CCCN6C[C@H](F)C7)nc5c3F)N3[C@H](CO4)C[C@@H]4C[C@@H]43)c12` [Example 32, 5-ethynyl-6-fluoro-4-((5aS,6aS,7aS)-1-fluoro-9-(((2R,7aS)-2-fluorotetrahydro-1H-pyrrolizin-7a(5H)-yl)methoxy)-5,5a,6,6a,7,7a-hexahydro-4-oxa-3,7b,8,10-tetraazacyclopropa[a]naphtho[1,8-gh]azulen-2-yl)naphthalen-2-ol] yielded an IC50 of 26 nM.

`C[C@@H]1Oc2nc(-c3cc(N)cc(Cl)c3C(F)(F)F)c(F)c3nc(OC[C@@]45CCCN4C[C@H](F)C5)nc(c23)N2CCCC[C@@H]12` [Example 33, 3-chloro-5-((5S,5aS)-1-fluoro-11-(((2R,7aS)-2-fluorotetrahydro-1H-pyrrolizin-7a(5H)-yl)methoxy)-5-methyl-5,5a,6,7,8,9-hexahydro-4-oxa-3,9a,10,12-tetraazabenzo[4,5]cyclohepta[1,2,3-de]naphthalen-2-yl)-4-(trifluoromethyl)aniline] came in with an IC50 of 43 nM.

`C#Cc1c(F)ccc2cc(O)cc(-c3nc4c5c(nc(OC[C@@]67CCCN6C[C@H](F)C7)nc5c3F)N3CCCC[C@H]3[C@H](C)O4)c12` [Example 34, 5-ethynyl-6-fluoro-4-((5S,5aS)-1-fluoro-11-(((2R,7aS)-2-fluorotetrahydro-1H-pyrrolizin-7a(5H)-yl)methoxy)-5-methyl-5,5a,6,7,8,9-hexahydro-4-oxa-3,9a,10,12-tetraazabenzo[4,5]cyclohepta[1,2,3-de]naphthalen-2-yl)naphthalen-2-ol] displayed a 50% inhibitory concentration (IC50) of 10 nM.

With `C#Cc1c(F)ccc2cc(O)cc(-c3nc4c5c(nc(OC[C@@]67CCCN6C[C@H](F)C7)nc5c3F)N3C[C@@H](O)CC[C@H]3CO4)c12` [Example 35, (5aS,8S)-2-(8-ethynyl-7-fluoro-3-hydroxynaphthalen-1-yl)-1-fluoro-11-(((2R,7aS)-2-fluorotetrahydro-1H-pyrrolizin-7a(5H)-yl)methoxy)-5,5a,6,7,8,9-hexahydro-4-oxa-3,9a,10,12-tetraazabenzo[4,5]cyclohepta[1,2,3-de]naphthalen-8-ol], the midpoint of inhibition, the IC50, lay at 15 nM.

The next test deals with pERK1/2(THR202/TYR204) level in AsPC-1 cell line (KRAS G12D). In words: KRAS G12D pERK assay (HTRF) in AsPC-1 cell line. The format is cell-based. To be noted: Homo sapiens, ASPC1; AsPC-1 cells, 2 h compound treatment. The procedure:
as §1, with “AsPC-1” for “SW620”, “RPMI-1640” for “RPMI 1640”, “30000” for “40000”, “h” for “hrs”, “IC50 determination was performed by fitting the curve of percent inhibition versus the log of the inhibitor concentration using Dotmatics.” left out
`C#Cc1c(F)ccc2cc(O)cc(-c3nc4c5c(nc(OC[C@@]67CCCN6C[C@H](F)C7)nc5c3F)N3CCCC[C@H]3CO4)c12` [Example 16, 5-ethynyl-6-fluoro-4-((S)-1-fluoro-11-(((2R,7aS)-2-fluorotetrahydro-1H-pyrrolizin-7a(5H)-yl)methoxy)-5,5a,6,7,8,9-hexahydro-4-oxa-3,9a,10,12-tetraazabenzo[4,5]cyclohepta[1,2,3-d]naphthalen-2-yl)naphthalen-2-ol] displayed an IC50 of 6.3 nM.

The record behind these values is patent US20250250287A1, “HETEROCYCLIC COMPOUNDS, COMPOSITIONS THEREOF, AND METHODS OF TREATMENT THEREWITH” (BeiGene Switzerland GmbH, priority 2022, published 2025).
